Measurements: patent US7687651B2, “Method for the preparation of trans-or cis-diammoniumdichlorodihydroxoplatinum(IV) and the use thereof in the production of pharmaceutical active substances” (priority 2003, dated 2010)
Values joined by “and” are separate entries in the source; they are usually repeats but may differ in a detail not shown here. Equal entries are not always repeated.

Experiments:
Format in all cases: cell-based, human
Fib3 Fibroblasts = experiment: Cytotoxic activity of trans-oxoplatin, Fib3
Method: (§1) trans-Oxoplatin was tested on a panel of cell lines, using double steps and an initial concentration of 40 μg/ml. As the IC50 values were not reached in most cases, cell survival at the highest concentration is indicated.

T-47D breast cancer = experiment: Cytotoxic activity of trans-oxoplatin, T-47D
Method: as §1

G-292 Osteosarcoma = experiment: Cytotoxic activity of trans-oxoplatin, G-292; conditions: G-292 osteosarcoma cell line
Method: as §1

[1] = test system: MiaPaCa2 Pancreatic cancer; experiment: Cytotoxic activity of trans-oxoplatin, MIAPaCa2; conditions: several values given
Method: as §1

HL-60 Leukemia = experiment: Cytotoxic activity of trans-oxoplatin, HL-60
Method: as §1

HCT-15 Colon carcinoma [2] = experiment: Cytotoxic activity of trans-oxoplatin, HCT-15
Method: as §1

MDA-MB-231 Breast cancer = experiment: Cytotoxic activity of trans-oxoplatin, MDA-MB-231; conditions: several values given
Method: as §1

U-87-MG Astrocytoma = experiment: Cytotoxic activity of trans-oxoplatin, U-87-MG
Method: as §1

HOS Osteosarcoma [3] = experiment: Cytotoxic activity of trans-oxoplatin, HOS
Method: as §1

ACHN Renal carcinoma = experiment: Cytotoxic activity of trans-oxoplatin, ACHN
Method: as §1

[4] = test system: BxPC3 Pancreatic carcinoma; experiment: Cytotoxic activity of trans-oxoplatin, BxPC3
Method: as §1

COLO 205 Colon carcinoma = experiment: Cytotoxic activity of trans-oxoplatin, COLO 205
Method: as §1

SW620 Colon carcinoma = experiment: Cytotoxic activity of trans-oxoplatin, SW620; conditions: SW 620 colon carcinoma cell line
Method: as §1

Panc1 Pancreatic cancer [5] = experiment: Cytotoxic activity of trans-oxoplatin, PANC1
Method: as §1

[6] = test system: WI-38 Embryonic lung fibroblasts; experiment: Cytotoxic activity of trans-oxoplatin, WI-38
Method: as §1

ASTRO Astrocytoma = experiment: Cytotoxic activity of trans-oxoplatin, ASTRO
Method: as §1

K562 Leukemia = experiment: Cytotoxic activity of trans-oxoplatin, K562
Method: as §1

CRO1A Carcinoid = experiment: Cytotoxic activity of trans-oxoplatin, CRO1A; conditions: several values given
Method: as §1

T47D Breast cancer = experiment: Growth inhibition test on T47D cells
Method: (§2) The effect of cis-oxoplatin Ca and cis-oxoplatin was compared on 10 cell lines (Table 4).
(§3) (IC50 values specified in μg/ml; the test was performed as a formazan test).

M607 Melanoma = experiment: Growth inhibition test on M607 cells; conditions: Table 1
Method: (§4) Growth inhibition tests on various human cell lines show the different activities of cisplatin, cis-oxoplatin and oxaliplatin. […] The following Table illustrates the results produced with cisplatin, oxoplatin, carboplatin and oxaliplatin (the values specified are IC50 values in μg/ml, i.e., the concentration where 50% of the cells survive, nd=not determined; res=resistant=non-sensitive or IC50 value cannot be determined at a concentration of up to 40 μg/ml; IC=inhibition concentration).

U 373 MG Astrocytoma = experiment: Growth inhibition test on U 373 MG cells; conditions: Table 2
Method: as §4

[7] = test system: HT29, SW480, SK-OV4, PC3, SIM, CaCO-2, DU145 and CRO2B cells; experiment: Growth inhibition, IC50 over eight cell lines of Table 2; conditions: CaCO-2, DU145, CRO2B
Method: as §4
The activities differ according to the cell line.

BT20 Breast = experiment: Formazan test on BT20 cells; conditions: Table 4
Method: as §2, §3

CC1227 Colon carcinoma = experiment: Growth inhibition test on CC1227 cells; conditions: Table 1
Method: as §4

CRO2B Carcinoid = experiment: Growth inhibition test on CRO2B cells; conditions: CRO2B Carcinoid
Method: as §2, §3

BxPC3 Pancreatic cancer = experiment: Growth inhibition test on BxPC3 cells
Method: as §2, §3

SK-OV3 Ovarian cancer = experiment: Growth inhibition test on SK-OV3 cells; conditions: Table 2
Method: as §4

Colo205 Colon carcinoma = experiment: Growth inhibition test on Colo205 cells
Method: as §2, §3

HOS Osteosarcoma [8] = experiment: Growth inhibition test on HOS cells; conditions: Table 1
Method: as §4

LAN1 (NB) = experiment: Effect on cell lines of typical tumors in children, LAN1; conditions: Table 3
Text: (§5) What is seen primarily in children are leukemias, neuroblastomas and Ewing's sarcoma/peripheral neuroectodermal tumors (group of the Ewing family of tumors=EFT). The investigated tumor cell lines include three EFTs (EW-7, SIM and KAL), as well as two neuroblastoma cell lines (NB: LAN1 and LAN5; Los Angeles neuroblastoma=LAN) (see Table 3).

HCT-15 Colon carcinoma [9] = experiment: Growth inhibition test on HCT-15 cells; conditions: Table 1
Method: as §4

CaCo-2 Colon = experiment: Growth inhibition test on CaCo-2 cells; conditions: CaCo-2 Colon
Method: as §2, §3

M518 Melanoma = experiment: Growth inhibition test on M518 cells; conditions: Table 1
Method: as §4

LAN5 (NB) = experiment: Effect on cell lines of typical tumors in children, LAN5; conditions: Table 3
Text: as §5

[10] = test system: MiaPaCa2 Pancreatic cancer; experiment: Growth inhibition test on MiaPaCa2 cells; conditions: Table 1
Method: as §4

Du145 Prostate = experiment: Growth inhibition test on Du145 cells; conditions: Du145 Prostate
Method: as §2, §3

A498 Renal cells = experiment: Growth inhibition test on A498 cells; conditions: Table 1
Method: as §4

SIM Sarcoma = experiment: Growth inhibition test on SIM cells
Method: as §4, §5

JVSO Melanoma = experiment: Growth inhibition test on JVSO cells; conditions: Table 1
Method: as §4

C320DM Colon carcinoma = experiment: Growth inhibition test on C320DM cells; conditions: Table 1
Method: as §4

HT29 Colon carcinoma = experiment: Growth inhibition test on HT29 cells
Method: as §2, §3

HCT8 Colon carcinoma = experiment: Growth inhibition test on HCT8 cells; conditions: Table 1
Method: as §4

MDA-MB-435 Breast = experiment: Formazan test on MDA-MB-435 cells; conditions: Table 4
Method: as §2, §3

PC3 Prostate = experiment: Growth inhibition test on PC3 cells; conditions: for % Survival: PC3 cells; for IC50: PC3 Prostate
Method: as §4

SK-OV4 Ovarian cancer = experiment: Growth inhibition test on SK-OV4 cells; conditions: Table 2; SK-OV4 Ovarian cancer
Method: as §4

SaOS Osteosarcoma = experiment: Growth inhibition test on SaOS cells; conditions: Table 1
Method: as §4

Panc1 Pancreatic cancer [11] = experiment: Growth inhibition test on Panc1 cells; conditions: Table 1
Method: as §4

MCF-7 Breast cancer = experiment: Growth inhibition test on MCF-7 cells; conditions: Table 1
Method: as §4

Me128 Melanoma = experiment: Growth inhibition test on Me128 cells; conditions: Table 1
Method: as §4

SW480 Colon = experiment: Growth inhibition test on SW480 cells; conditions: SW480 Colon
Method: as §2, §3

10 cell lines (Table 4) = experiment: Formazan test, IC50 mean value for all cell lines of Table 4; conditions: mean over the 10 cell lines of Table 4
Method: as §2, §3

EW-7 (EFT) = experiment: Effect on cell lines of typical tumors in children, EW-7; conditions: Table 3
Text: as §5

In the case of [NH2][Pt]([NH2])([OH])([OH])([Cl])[Cl] [TRAXO, trans-Oxoplatin], the “% Survival with 40 μg/ml TRAXO” value (Fib3 Fibroblasts) is reported as 91%, the “sensitivity of the cell line” value (T-47D breast cancer) is reported as “non-sensitive” and the “% Survival with 40 μg/ml TRAXO” value (T-47D breast cancer; 40 μg/ml) is reported as 101%. For the same compound, the “activity against the cell line” value (G-292 Osteosarcoma) was “considerable activity”, the “% Survival with 40 μg/ml TRAXO” value [1] was 92% and 83% and the “% Survival with 40 μg/ml TRAXO” value (HL-60 Leukemia; HL-60, 40 μg/ml) was 0.5%. The “activity against the cell line” value (HL-60 Leukemia; HL-60 leukemia cell line) was “considerable activity”, the “% Survival with 40 μg/ml TRAXO” value (HCT-15 Colon carcinoma [2]) was 100% and the “% Survival with 40 μg/ml TRAXO” value (MDA-MB-231 Breast cancer) was 70% and 103% and 106%. The “% Survival with 40 μg/ml TRAXO” value (U-87-MG Astrocytoma) was 100%, the “activity against the cell line” value (HOS Osteosarcoma [3]; HOS osteosarcoma cell line) was “considerable activity” and the “% Survival with 40 μg/ml TRAXO” value (HOS Osteosarcoma [3]; HOS, 40 μg/ml) was 4.3%. The “activity against the cell line” value (ACHN Renal carcinoma; ACHN renal carcinoma cell line) was “considerable activity”, the “% Survival with 40 μg/ml TRAXO” value (ACHN Renal carcinoma; ACHN, 40 μg/ml) was 48% and the “sensitivity of the cell line” value [4] was “non-sensitive”. The “% Survival with 40 μg/ml TRAXO” value ([4]; 40 μg/ml) was 106%, the “% Survival with 40 μg/ml TRAXO” value (COLO 205 Colon carcinoma) was 109% and the “activity against the cell line” value (SW620 Colon carcinoma) was “considerable activity”. The “% Survival with 40 μg/ml TRAXO” value (Panc1 Pancreatic cancer [5]) was 100%, the “% Survival with 40 μg/ml TRAXO” value ([6]; WI-38, 40 μg/ml) was 21% and the “activity against the cell line” value ([6]; WI-38 embryonic pulmonary fibroblast cell line) was “considerable activity”. The “% Survival with TRAXO (20 μg/ml indicated)” value (ASTRO Astrocytoma; 20 μg/ml) was 82%, the “% Survival with 40 μg/ml TRAXO” value (ASTRO Astrocytoma; 40 μg/ml) was 71% and the “% Survival with 40 μg/ml TRAXO” value (K562 Leukemia) was 97%. The “% Survival with 40 μg/ml TRAXO” value (CRO1A Carcinoid) was 87% and 104% and 70%.
N.N.[Cl-].[Cl-].[OH-].[OH-].[Pt+4] [cis-Oxoplatin, cis-diammoniumdichlorodihydroxoplatinum(IV)] gave an IC50 (T47D Breast cancer; Table 1, T47D Breast cancer) of 2.5 µg/mL, an IC50 (T47D Breast cancer; Table 2, T47D Breast cancer) of 3 µg/mL and an IC50 (T47D Breast cancer; Table 4, T47D Breast, formazan test) of 2.5 µg/mL. The IC50 (M607 Melanoma) was 5 µg/mL, the IC50 (U 373 MG Astrocytoma) was 15 µg/mL and the “IC50 values of these cells (mean ± spread)” value [7] was 10.5 ± 6.4 µg/mL. It also gave an IC50 (BT20 Breast) of 3.75 µg/mL, an IC50 (CC1227 Colon carcinoma) of 10 µg/mL and an IC50 (CRO2B Carcinoid; Table 2) of 3.0 µg/mL. The IC50 (CRO2B Carcinoid; Table 4, formazan test) was 3.0 µg/mL, the IC50 (BxPC3 Pancreatic cancer; Table 1, BxPC3 Pancreatic cancer) was 2.5 µg/mL and the IC50 (BxPC3 Pancreatic cancer; Table 2, BxPC3 Pancreatic carcinoma) was 13 µg/mL. The IC50 (BxPC3 Pancreatic cancer; Table 4, BxPC3 Pancreas, formazan test) was 26.0 µg/mL, the IC50 (SK-OV3 Ovarian cancer) was 15 µg/mL and the IC50 (Colo205 Colon carcinoma; Table 1, Colo205 Colon carcinoma) was “res (res=resistant=non-sensitive or IC50 value cannot be determined at a concentration of up to 40 μg/ml)”. It also gave an IC50 (Colo205 Colon carcinoma; Table 4, Colo205 Colon, formazan test) of 29.0 µg/mL, an IC50 (HOS Osteosarcoma [8]) of 2.5 µg/mL and an IC50 (LAN1 (NB)) of 17 µg/mL. It also gave an IC50 (HCT-15 Colon carcinoma [9]) of 20 µg/mL, an IC50 (CaCo-2 Colon; Table 2) of 1.52 µg/mL and an IC50 (CaCo-2 Colon; Table 4, formazan test) of 1.52 µg/mL. For the same compound, the IC50 (M518 Melanoma) was “res (res=resistant=non-sensitive or IC50 value cannot be determined at a concentration of up to 40 μg/ml)”, the IC50 (LAN5 (NB)) was 3.5 µg/mL and the IC50 [10] was 5 µg/mL. It also gave an IC50 (Du145 Prostate; Table 2) of 19.0 µg/mL, an IC50 (Du145 Prostate; Table 4, formazan test) of 19.0 µg/mL and an IC50 (A498 Renal cells) of 20 µg/mL. It also gave an IC50 (SIM Sarcoma; Table 2, SIM Sarcoma) of 15.2 µg/mL, an IC50 (SIM Sarcoma; Table 3, SIM (EFT)) of 14 µg/mL and an IC50 (JVSO Melanoma) of 10 µg/mL. It also gave an IC50 (C320DM Colon carcinoma) of 2.5 µg/mL, an IC50 (HT29 Colon carcinoma; Table 1, HT29 Colon carcinoma) of 20 µg/mL and an IC50 (HT29 Colon carcinoma; Table 2, HT29 Colon) of 13.5 µg/mL. For the same compound, the IC50 (HT29 Colon carcinoma; Table 4, HT29 Colon, formazan test) was 13.5 µg/mL, the IC50 (HCT8 Colon carcinoma) was 40 µg/mL and the IC50 (MDA-MB-435 Breast) was 16.5 µg/mL. For the same compound, the “% Survival” value (PC3 Prostate; Conc. 5 μg/ml) was 105.2 ± 10.8%, the “% Survival” value (PC3 Prostate; Conc. 10 μg/ml) was 87.4 ± 11.8% and the “% Survival” value (PC3 Prostate; Conc. 20 μg/ml) was 56.7 ± 6.3%. For the same compound, the “% Survival” value (PC3 Prostate; Conc. 40 μg/ml) was 15.8 ± 2.7%, the IC50 (PC3 Prostate; Table 1) was 7.5 µg/mL and the IC50 (PC3 Prostate; Table 2) was 7.5 µg/mL. For the same compound, the IC50 (SK-OV4 Ovarian cancer) was 16.2 µg/mL, the IC50 (SaOS Osteosarcoma) was 5 µg/mL and the IC50 (Panc1 Pancreatic cancer [11]) was 40 µg/mL. The IC50 (MCF-7 Breast cancer) was 5.5 µg/mL, the IC50 (Me128 Melanoma) was 2.5 µg/mL and the IC50 (SW480 Colon; Table 2) was 8.2 µg/mL. For the same compound, the IC50 (SW480 Colon; Table 4, formazan test) was 8.2 µg/mL, the “IC50 (±SEM) mean value for all cell lines” value (10 cell lines (Table 4)) was 12.3 ± 3.2 µg/mL and the IC50 (EW-7 (EFT)) was 1.25 µg/mL.
